According to article PMC3318891, “Insights into the In Vivo Regulation of Glutamate Dehydrogenase from the Foot Muscle of an Estivating Land Snail” (Enzyme Research, 2012):
One block for each molecule: values may come before it.

Columns and labels:
Assay type in all cases: biochemical
[1] = tested on: T1, 10 day estivated Otala lactea foot muscle GDH; assay: NADH absorbance at […] nm, glutamate-oxidizing direction; conditions: activation constant (half-maximal activation, not association constant); suboptimal substrates 10 mM L-glutamate, 0.5 mM NAD+; Tris-HCl pH 8.0
T1 construct: native enzyme purified from foot muscle of 10-day estivated snails on GTP-agarose; high-phosphate form, sites unknown

[2] = tested on: T2, control Otala lactea foot muscle GDH; assay: as above; conditions: activation constant (half-maximal activation, not association constant); suboptimal substrates 10 mM L-glutamate, 0.5 mM NAD+; Tris-HCl pH 8.0
T2 construct: native enzyme purified from foot muscle of active (control) snails on GTP-agarose; low-phosphate form, sites unknown

[3] = tested on: T2, control Otala lactea foot muscle GDH; assay: NADH absorbance at […] nm, glutamate-synthesizing direction; conditions: activation constant (half-maximal activation, not association constant); suboptimal substrates 0.2 mM α-ketoglutarate, 0.15 mM NADH, 40 mM NH4Cl; HEPES pH 7.2
[4] = tested on: T2, control Otala lactea foot muscle GDH; assay: as above; conditions: inhibitor; suboptimal substrates 0.2 mM α-ketoglutarate, 0.15 mM NADH, 40 mM NH4Cl; HEPES pH 7.2
[5] = tested on: T1, 10 day estivated Otala lactea foot muscle GDH; assay: as above; conditions: inhibitor; suboptimal substrates 0.2 mM α-ketoglutarate, 0.15 mM NADH, 40 mM NH4Cl; HEPES pH 7.2
[6] = tested on: T2, control Otala lactea foot muscle GDH; assay: NADH absorbance at […] nm, glutamate-oxidizing direction; conditions: no ADP, Tris-HCl pH 8.0
[7] = tested on: T1, 10 day estivated Otala lactea foot muscle GDH; assay: as above; conditions: no ADP, Tris-HCl pH 8.0
[8] = tested on: T2, control Otala lactea foot muscle GDH; assay: NADH absorbance at […] nm, glutamate-synthesizing direction; conditions: no ADP, 0.2 mM NADH, HEPES pH 7.2
[9] = tested on: T1, 10 day estivated Otala lactea foot muscle GDH; assay: as above; conditions: no ADP; optimal co-substrates 100 mM NH4Cl, 0.2 mM NADH; HEPES pH 7.2
[10] = optimal co-substrate 1.5 mM NAD+
[11] = optimal co-substrate 50 mM L-glutamate

Compound: Nc1ncnc2c1ncn2[C@@H]1O[C@H](COP(=O)(O)OP(=O)(O)O)[C@@H](O)[C@H]1O [ADP]
EC50 [1]: 3.5 ± 0.5 µM | EC50 [2]: 4.7 ± 0.7 µM

Compound: Nc1ncnc2c1ncn2[C@@H]1O[C@H](COP(=O)(O)O)[C@@H](O)[C@H]1O [AMP]
EC50 [3]: 270 ± 40 µM

Compound: Nc1ncnc2c1ncn2[C@@H]1O[C@H](COP(=O)(O)OP(=O)(O)OP(=O)(O)O)[C@@H](O)[C@H]1O [ATP]
IC50 [4]: 7 ± 1 mM

Compound: Nc1nc2c(ncn2[C@@H]2O[C@H](COP(=O)(O)OP(=O)(O)OP(=O)(O)O)[C@@H](O)[C@H]2O)c(=O)[nH]1 [GTP]
IC50 [5]: 150 ± 20 nM | IC50 [4]: 0.00034 ± 2e-05 mM

Compound: N[C@@H](CCC(=O)O)C(=O)O [L-glutamate]
Km [6, 10]: 900 ± 20 µM | Km [7, 10]: 840 ± 20 µM

Compound: NC(=O)c1ccc[n+]([C@@H]2O[C@H](COP(=O)(O)OP(=O)(O)OC[C@H]3O[C@@H](n4cnc5c(N)ncnc54)[C@H](O)[C@@H]3O)[C@@H](O)[C@H]2O)c1 [NAD^+]
Km [6, 11]: 590 ± 80 µM | Km [7, 11]: 490 ± 20 µM

Next, values leading:

Km ([8]; optimal co-substrates 1 mM α-ketoglutarate): 63 ± 2 mM
Compound: N [NH4 ^+]

Km ([8]; optimal co-substrates 100 mM NH4Cl): 0.19 ± 0.03 mM | Km [9]: 550 ± 50 µM
Compound: O=C(O)CCC(=O)C(=O)O [α-ketoglutarate]
